Measurements published in publication PMC13168289, “Potent acridone antimalarial against all three life stages of Plasmodium” (Nature Communications, 2026).
Values joined by “and” are separate entries in the source; they are usually repeats but may differ in a detail not shown here. Equal entries are not always repeated. Where two headings read alike, the source gives them in different places.

What was measured:
[1] = system: P. falciparum mutant T111 lines; test: drug susceptibility of T111-selected cyt b mutant lines; type: cell-based, Plasmodium falciparum
Description: DNA extractions were performed on clonal parasites using the QIAamp DNA extraction kit (QIAGEN Inc, Valencia, CA) or ZYMO Quick gDNA Miniprep kit (Zymo Research Corp, Irvine, CA). For sequencing of the open reading frame of pfcytb, PCR was performed with genomic DNA using forward and reverse flanking primers for cyt b primer 1: 5’-[…]-3’ and primer 2: 5’-[…]-3’. PCR products were subjected to enzymatic cleanup with ExoSAP-IT (Thermo Fisher Scientific) and sent for Sanger sequencing (Eurofins Genomics, Louisville, KY) with PCR primer 2 paired with an internal forward primer: 5’-[…]-3’ and an internal reverse primer: 5’-[…]-3’. Sequences were assembled using 4Peaks software (Nucleobytes, Amsterdam, Netherlands) and aligned with Clustal Omega (EMBL-EBI). For sequencing of the open reading frame of pfdhodh, PCR was performed with genomic DNA using forward primer: 5’-[…]-3’ and reverse primer: 5’-[…]-3’. PCR products were prepared for Sanger sequencing and analyzed as described above, except using two forward primers: 5’-[…]-3’ and 5’-[…]-3’ and with two reverse primers: 5’-[…]-3’ and 5’-[…]-3’.
(§1) Drug susceptibility assays against P. falciparum strains were performed using a SYBR Green based assay. D6 and Dd2 were obtained from MR4. Tm90-C2B was obtained from WRAIR. Dd2-D1^I22L and ELQ-300 were obtained from VAPORHCS. D10yDHODH was obtained as a courtesy from Dr. Akhil Vaidya at Drexel University. P. yoelii ATV^r and ELQ-300^r clones were obtained from VAPORHCS.

[2] = system: P. yoelii wild type, ATV^r and ELQ-300^r clones; test: 4-day suppression model with ATV- and ELQ-300-resistant clones; type: in vivo, P. yoelii in CF1 mice; conditions: (95% CI)
From the text: Animals were housed at the VAPORHCS in Thoren Maxi-Miser microisolator cages (78 sq. in. floor space) with a maximum density of five females or four males per cage. Cages were maintained on a 12-h light/dark cycle and provided with autoclaved nesting materials (nestlets) for environmental enrichment. All mice had ad libitum access to food and water. Four- to five-week-old female and male outbred CF1 mice (Charles River Laboratories, Raleigh, NC, USA) were randomly assigned to treatment and control groups using a simple randomization procedure (e.g., computer-generated random numbers) to ensure balanced distribution of baseline body weights and starting parasitemia levels across all cohorts. Groups of four mice (n = 4, mean body weight of each group was ~30 g) were infected intravenously with 3.5 × 10^4 P. yoelii (Kenya strain, MRA-428) from a donor animal. Drug administration commenced the day after the animals were inoculated (Day 1). The test drug or the drug combination was dissolved in PEG-400 and administered by oral gavage once daily for 4 successive days in the 4-day suppression model, but only once on Day 1 in the single-dose cure model. Blood was collected via the tail vein with the aid of a syringe needle on Day 5 and then at weekly intervals through Day 28. Blood films were Giemsa-stained and examined microscopically to determine the level of parasitemia. All mice were observed daily to assess clinical signs. Animals with observable parasitemia following the experiments were euthanized; animals cleared of parasitemia from their bloodstream were observed daily with assessment of parasitemia performed weekly until Day 28, at which point, the animal(s) were scored as cured of the infection and then humanely euthanized. All treated mice with a negative smear on Day 28 were considered cured (100% protection).
as §1

[3] = system: P. falciparum D6, Dd2, Tm90-C2B, Dd2-D1^I22L, D10yDHODH; test: microbe, parasite or virus in culture; type: cell-based, Plasmodium falciparum
Description: as §1

[4] = system: P. cynomolgi hypnozoites and schizonts; test: in vitro liver-stage P. cynomolgi assay in primary rhesus hepatocytes; type: cell-based, Plasmodium cynomolgi
Description: The liver-stage P. cynomolgi assay was designed to identify anti-hypnozoite drugs utilizing a 384-well in vitro culture system[31],[37]. Briefly, cryopreserved primary simian hepatocytes (donor lots XGB, OQB, and QHO: BioIVT, Inc.) were seeded in collagen-coated 384-well plates and infected with P. cynomolgi bastianellii (B strain) sporozoites dissected from infected Anopheles dirus mosquitoes. Test compounds were solubilized in 100% DMSO and serially diluted 2-fold to generate up to a 12-point dose-response curve, maintaining a final DMSO concentration of 0.1% across all wells. Two distinct treatment modes were evaluated. For the prophylactic assay, to assess the prevention of infection, compound exposure began 1-hour post-infection with daily media changes on Days 1 and 2. For the radical cure assay, to assess activity against established liver forms, drugs were administered daily from Day 4 through Day 7 post-infection. […] For readout on Day 8, plates were fixed and stained via immunofluorescence to visualize parasite forms (hypnozoites and schizonts) and hepatocyte nuclei, and images were acquired using an Operetta CLS high-content imaging system (PerkinElmer). Host hepatocyte viability was measured in parallel to determine compound toxicity. Parasite forms were automatically quantified using Harmony 4.9 software, and percent inhibition and toxicity were calculated relative to in-plate DMSO vehicle controls. IC50 and CC50 (half-maximal cytotoxic concentrations) were determined by fitting dose-response data to a four-parameter logistic (variable slope) model using a custom Python script incorporating a grid search algorithm.

[5] = system: P. falciparum NF54 gametocytes; test: sexual blood-stage gametocyte assay; type: cell-based, Plasmodium falciparum; conditions: Days 5 to 7, read Day 14
Description: P. falciparum NF54 was used to generate gametocytes. The erythrocytic stage of the parasite was cultured following standard laboratory protocols. Gametocyte production was carried out as described by Miura et al[34]. […] Cultures were maintained in washed human O^+ red blood cells at a final hematocrit of 2%[76]. For gametocyte cultures, parasites were induced using serum-free human media. Gametocyte cultures were maintained in washed human O^+ red blood cells at a final hematocrit of 5%. […] All cultures were maintained at 37 °C in a Billups chamber under a gas mixture of 90% N2, 5% CO2, and 5% O2, with media changes daily. […] DMSO diluted in gametocyte media was used as the control. […] Gametocytemia was assessed on Day 14 post-induction using blood smears stained with the Hema 3^TM Manual Staining System (Fisher) and analyzed by light microscopy.

O=C1C(O)=C([C@H]2CC[C@H](c3ccc(Cl)cc3)CC2)C(=O)c2ccccc21 [ATV, atovaquone]
IC50 ([1]; Plasmodium falciparum, DD2, read-out: inhibition IC50 vs P. falciparum, Dd2): 0.44 ± 0.052 nM | IC50 ([1]; Plasmodium falciparum, DD2, read-out: inhibition IC50 vs P. falciparum, Dd2-A^131S-140I-259L): 4.7 ± 0.44 nM | IC50 ([1]; Plasmodium falciparum, DD2, read-out: inhibition IC50 vs P. falciparum, Dd2-A^131S-140I-259L-264L): 15 ± 2 nM | IC50 ([1]; Plasmodium falciparum, DD2, read-out: inhibition IC50 vs P. falciparum, Dd2-B^87V-131S-140I-259L): 10 ± 1.4 nM | IC50 ([1]; Plasmodium falciparum, DD2, read-out: inhibition IC50 vs P. falciparum, Dd2-B^131S-140I-259L-264L): 11 ± 1.8 nM | IC50 ([1]; Plasmodium falciparum, DD2, read-out: inhibition IC50 vs P. falciparum, Dd2-C0^119L-131S-259L (pfdhodh mutation)): 15 ± 0.46 nM | IC50 ([1]; Plasmodium falciparum, DD2, read-out: inhibition IC50 vs P. falciparum, Dd2-C1^131S-140I-259L (pfdhodh mutation)): 25 ± 7.2 nM | IC50 ([1]; Plasmodium falciparum, DD2, read-out: inhibition IC50 vs P. falciparum, Dd2^131S): 0.34 ± 0.049 nM | IC50 ([1]; Plasmodium falciparum, DD2, read-out: inhibition IC50 vs P. falciparum, Dd2^131S-259L): 1.5 ± 0.17 nM | IC50 ([1]; Plasmodium falciparum, DD2, read-out: inhibition IC50 vs P. falciparum, Dd2^259L): 6.6 ± 1.9 nM | ED50 ([2]; P. yoelii ATVrY268S): 15.3 (9.9–24) mg/kg/day | ED50 ([2]; P. yoelii ELQ-300rI22L): 0.068 (0.053–0.087) mg/kg/day | ED50 ([2]; P. yoelii wild type): 0.064 (0.049–0.085) mg/kg/day | IC50 ([3]; Plasmodium falciparum, read-out: in vitro IC50 vs P. falciparum, D6): 0.073 ± 0.01 nM | IC50 ([3]; Plasmodium falciparum, read-out: in vitro IC50 vs P. falciparum, D10yDHODH): > 2500 nM | IC50 ([3]; Plasmodium falciparum, read-out: in vitro IC50 vs P. falciparum, Dd2): 0.13 ± 0.012 nM | IC50 ([3]; Plasmodium falciparum, read-out: in vitro IC50 vs P. falciparum, Dd2-D1^I22L (ELQ-300-resistant)): 0.007 ± 0.0025 nM | IC50 ([3]; Plasmodium falciparum, read-out: in vitro IC50 vs P. falciparum, Tm90-C2B (cyt b Y268S, ATV-resistant)): 8538 ± 65 nM | IC50 ([4]; Plasmodium cynomolgi, Hepatocyte, in Macaca mulatta, prophylactic mode, hypnozoite, read-out: inhibition IC50): > 1200 nM | IC50 ([4]; Plasmodium cynomolgi, Hepatocyte, in Macaca mulatta, prophylactic mode, schizont, read-out: inhibition IC50): 9.3 nM | IC50 ([4]; Plasmodium cynomolgi, Hepatocyte, in Macaca mulatta, radical cure mode, hypnozoite, read-out: inhibition IC50): 2460 nM | IC50 ([4]; Plasmodium cynomolgi, Hepatocyte, in Macaca mulatta, radical cure mode, schizont, read-out: inhibition IC50): 2250 nM | IC50 ([4]; Plasmodium cynomolgi, Hepatocyte, in Macaca mulatta, summary in response to reviewers, read-out: IC50 values against hypnozoites): > 2000 nM

O=c1c2ccc(Oc3ccc(OC(F)(F)F)cc3)cc2[nH]c2cc(Cl)cc(F)c12 [T111]
IC50 ([1]; Dd2-A^131S-140I-259L-264L, read-out: inhibition IC50 vs P. falciparum): 98 ± 12 nM | IC50 ([1]; Dd2-A^131S-140I-259L, read-out: inhibition IC50 vs P. falciparum): 74 ± 5.1 nM | IC50 ([1]; Dd2-B^87V-131S-140I-259L, read-out: inhibition IC50 vs P. falciparum): 129 ± 6.3 nM | IC50 ([1]; Dd2-B^131S-140I-259L-264L, read-out: inhibition IC50 vs P. falciparum): 114 ± 13 nM | IC50 ([1]; Dd2-C0^119L-131S-259L (pfdhodh mutation), read-out: inhibition IC50 vs P. falciparum): 144 ± 12 nM | IC50 ([1]; Dd2-C1^131S-140I-259L (pfdhodh mutation), read-out: inhibition IC50 vs P. falciparum): 223 ± 36 nM | IC50 ([1]; Dd2, read-out: inhibition IC50 vs P. falciparum): 0.15 ± 0.023 nM | IC50 ([1]; Dd2^131S-259L, read-out: inhibition IC50 vs P. falciparum): 12 ± 2.5 nM | IC50 ([1]; Dd2^131S, read-out: inhibition IC50 vs P. falciparum): 0.78 ± 0.081 nM | IC50 ([1]; Dd2^259L, read-out: inhibition IC50 vs P. falciparum): 4.4 ± 0.71 nM | ED50 ([2]; P. yoelii ATVrY268S): 0.31 (0.29–0.34) mg/kg/day and 0.31 mg/kg/day | ED50 ([2]; P. yoelii ELQ-300rI22L): 0.25 (0.21–0.30) mg/kg/day and 0.25 mg/kg/day | ED50 ([2]; P. yoelii wild type): 0.24 (0.20–0.29) mg/kg/day and 0.24 mg/kg/day | IC50 ([3]; D6, read-out: in vitro IC50 vs P. falciparum): 0.028 ± 0.00036 nM | IC50 ([3]; D10yDHODH, read-out: in vitro IC50 vs P. falciparum): > 2500 nM | IC50 ([3]; Dd2, read-out: in vitro IC50 vs P. falciparum): 0.042 ± 0.0042 nM | IC50 ([3]; Tm90-C2B (cyt b Y268S, ATV-resistant), read-out: in vitro IC50 vs P. falciparum): 4 ± 0.076 nM | inhibition of formation of stage V gametocytes ([5]; 1 µM): 75% | inhibition of formation of stage V gametocytes ([5]; 10 µM): 93% | IC50 ([4]; prophylactic mode, hypnozoite, read-out: inhibition IC50): 93 nM | IC50 ([4]; prophylactic mode, schizont, read-out: inhibition IC50): 18 nM | residual population of hypnozoites ([4]; radical cure mode, highest concentrations tested): 10-20% | IC50 ([4]; radical cure mode, hypnozoite, read-out: inhibition IC50): 500 nM | IC50 ([4]; radical cure mode, schizont, read-out: inhibition IC50): 280 nM
